A value given as a limit tells only on which side of the number the result lay.

The first assay addresses T1, human TAAR1 receptors (Homo sapiens, UniProt Q96RJ0).
T1 construct: host or cells: CHO-K1
T1 sequence (Q96RJ0 1-339): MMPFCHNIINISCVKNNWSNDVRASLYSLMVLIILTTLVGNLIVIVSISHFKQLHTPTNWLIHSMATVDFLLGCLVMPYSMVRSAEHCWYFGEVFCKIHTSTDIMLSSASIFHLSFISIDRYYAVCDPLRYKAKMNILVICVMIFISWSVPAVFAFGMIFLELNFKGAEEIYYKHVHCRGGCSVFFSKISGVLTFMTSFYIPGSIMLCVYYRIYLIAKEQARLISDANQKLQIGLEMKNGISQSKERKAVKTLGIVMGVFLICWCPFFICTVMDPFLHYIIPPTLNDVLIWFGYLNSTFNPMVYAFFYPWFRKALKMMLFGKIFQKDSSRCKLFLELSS
Kind of assay: TAAR1 Agonism Assay: cAMP HTRF assay for Gs coupled receptor TAAR1 (Euroscreen FAST-0987C). The format is cell-based. To be noted: CHO-K1 cells expressing human TAAR1, cAMP HTRF. As to the method:
Dose response curves were performed in parallel with the reference compound, tyramine.
For the TAAR1 agonist test (performed in a 384 well plate): 5 μl of cells (about 3,000 cells) were mixed with 5 μl of the test compound diluted in assay buffer and then incubated for about 30 minutes at about room temperature. After addition of the lysis buffer containing cAMP-d2 and anti-cAMP cryptate detection reagents, plates were incubated for about a 1-hour incubation at about room temperature, and fluorescence ratios were measured according to the manufacturer specifications, with the HTRF (Homogeneous Time Resolved Fluorescence) kit (cAMP Gs dynamic kit, Cisbio Bioassays, 62AM4PEJ).
(§1) Compounds were tested at the following nanomolar concentrations, in duplicate: 0.3 nM, 1 nM, 3 nM, 10 nM, 30 nM, 100 nM, 300 nM, 1,000 nM, 3,000 nM, and 10,000 nM.
As a reminder, the EC50 is the midpoint of the concentration-response curve. A high value points to a less potent agent. `CNCC1Cc2ccccc2Oc2ccc(F)cc21` (single isomer, unassigned) [Compound 95, (S*)-(8-fluoro-10,11-dihydrodibenzo[b,f]oxepin-10-yl)-N-methylmethanamine]: the EC50 fell in the range of 1 to 10 µM.
Same read-out and setting: next, `CNCC1Cc2c(Cl)cccc2Oc2cccnc21` (single isomer, unassigned) [Compound 147, (R*)-(9-chloro-10,11-dihydrobenzo[6,7]oxepino[3,2-b]pyridin-11-yl)-N-methylmethanamine]: less than 1 µM.
On the same count and under the same terms, as for `NCC1Cc2ncccc2Oc2cc(F)ccc21` (single isomer, unassigned) [Compound 35, (R*)-(7-fluoro-10,11-dihydrobenzo[6,7]oxepino[3,2-b]pyridin-10-yl)methanamine], the figure is 1 to 10 µM; as for `NCC1Cc2ccccc2Oc2ccc(F)cc21` (single isomer, unassigned) [Compound 93, (S*)-(8-fluoro-10,11-dihydrodibenzo[b,f]oxepin-10-yl)methanamine], 1 to 10 µM.
The same measure, in the same setting: next, `C[C@H]1c2ccccc2Oc2cccnc2[C@H]1CN` (stereo in doubt) [Compound 113, ((10R*,11R*)-10-methyl-10,11-dihydrobenzo[6,7]oxepino[3,2-b]pyridin-11-yl)methanamine]: greater than 10 µM; `CNC[C@@H]1c2ncccc2Oc2ccccc2[C@@H]1C` (stereo in doubt) [Compound 117, ((10R*,11R*)-10-methyl-10,11-dihydrobenzo[6,7]oxepino[3,2-b]pyridin-11-yl)-N-methylmethanamine]: greater than 10 µM.
Turning to `NCC1Cc2cc(F)ccc2Oc2ccccc21` (single isomer, unassigned) [Compound 97, (S*)-(2-fluoro-10,11-dihydrodibenzo[b,f]oxepin-10-yl)methanamine], the EC50 was greater than 10 µM.
Still for that read-out and setting: as for `CNCC1Cc2ncccc2Oc2cccc(F)c21` (single isomer, unassigned) [Compound 157, (R*)-(9-fluoro-10,11-dihydrobenzo[6,7]oxepino[3,2-b]pyridin-10-yl)-N-methylmethanamine], the figure is greater than 10 µM; as for `CNCC1Cc2c(F)cccc2Oc2cccnc21` (single isomer, unassigned) [Compound 139, (R*)-1-(9-fluoro-10,11-dihydrobenzo[6,7]oxepino[3,2-b]pyridin-11-yl)-N-methylmethanamine], 1 to 10 µM.
Consider `NCC1Cc2ccc(F)cc2Oc2ccccc21` (single isomer, unassigned) [Compound 88, (R*)-(3-fluoro-10,11-dihydrodibenzo[b,f]oxepin-10-yl)methanamine], for which the EC50 is 1 to 10 µM.
Same read-out and setting: next, `CCNCC1Cc2ccccc2Oc2cccnc21` (single isomer, unassigned) [Compound 108, (S*)-1-(10,11-dihydrobenzo[6,7]oxepino[3,2-b]pyridin-11-yl)-N-ethylmethanamine]: less than 1 µM; `CNCC1Cc2cc(F)ccc2Oc2ccccc21` (single isomer, unassigned) [Compound 99, (S*)-(2-fluoro-10,11-dihydrodibenzo[b,f]oxepin-10-yl)-N-methylmethanamine]: greater than 10 µM; `CNCC1Cc2c(Cl)cccc2Oc2cccnc21` (single isomer, unassigned) [Compound 146, (S*)-(9-chloro-10,11-dihydrobenzo[6,7]oxepino[3,2-b]pyridin-11-yl)-N-methylmethanamine]: greater than 10 µM.
Still for that read-out and setting: as for `NCC1Cc2ncccc2Oc2c(F)cccc21` (single isomer, unassigned) [Compound 175, (R*)-(6-fluoro-10,11-dihydrobenzo[6,7]oxepino[3,2-b]pyridin-10-yl)methanamine], the figure is 1 to 10 µM; as for `CNCC1Cc2ncc(F)cc2Oc2ccccc21` (single isomer, unassigned) [Compound 37, (R*)-1-(3-fluoro-10,11-dihydrobenzo[6,7]oxepino[3,2-b]pyridin-10-yl)-N-methylmethanamine], greater than 10 µM.
On the same count and under the same terms, next, `CNCC1Cc2ncccc2Oc2ccc(Cl)cc21` (single isomer, unassigned) [Compound 169, (R*)-1-(8-chloro-10,11-dihydrobenzo[6,7]oxepino[3,2-b]pyridin-10-yl)-N-methylmethanamine]: greater than 10 µM; `CNCC1Cc2ncccc2Oc2c(F)cccc21` (single isomer, unassigned) [Compound 178, (S*)-1-(6-fluoro-10,11-dihydrobenzo[6,7]oxepino[3,2-b]pyridin-10-yl)-N-methylmethanamine]: less than 1 µM.
`NCC1Cc2ncccc2Oc2ccc(Cl)cc21` (single isomer, unassigned) [Compound 168, (S*)-(8-chloro-10,11-dihydrobenzo[6,7]oxepino[3,2-b]pyridin-10-yl)methanamine] registered an EC50 of 1 to 10 µM.
Regarding `CNCC1Cc2ncccc2Oc2cc(F)ccc21` (single isomer, unassigned) [Compound 33, (R*)-1-(7-fluoro-10,11-dihydrobenzo[6,7]oxepino[3,2-b]pyridin-10-yl)-N-methylmethanamine], the EC50 is greater than 10 µM.
On the same count and under the same terms, next, `CNCC1Cc2ncccc2Oc2cc(F)ccc21` (single isomer, unassigned) [Compound 34, (S*)-1-(7-fluoro-10,11-dihydrobenzo[6,7]oxepino[3,2-b]pyridin-10-yl)-N-methylmethanamine]: less than 1 µM; `NCC1Cc2ncccc2Oc2cccc(F)c21` (single isomer, unassigned) [Compound 155, (R*)-(9-fluoro-10,11-dihydrobenzo[6,7]oxepino[3,2-b]pyridin-10-yl)methanamine]: 1 to 10 µM.
The same measure, in the same setting: as for `CNCC1Cc2ccccc2Oc2c(F)cccc21` (single isomer, unassigned) [Compound 103, (S*)-(6-fluoro-10,11-dihydrodibenzo[b,f]oxepin-10-yl)-N-methylmethanamine], the figure is 1 to 10 µM.
On the same count and under the same terms, next, `NCC1Cc2cc(Br)ccc2Oc2cccnc21` (single isomer, unassigned) [Compound 148, (R*)-(8-bromo-10,11-dihydrobenzo[6,7]oxepino[3,2-b]pyridin-11-yl)methanamine]: less than 1 µM; `CNCC1Cc2c(C)cccc2Oc2cccnc21` (single isomer, unassigned) [Compound 142, (S*)-(9-methyl-10,11-dihydrobenzo[6,7]oxepino[3,2-b]pyridin-11-yl)-N-methylmethanamine]: 1 to 10 µM; `CNCC1Cc2ncccc2Oc2c(F)cccc21` (single isomer, unassigned) [Compound 177, (R*)-1-(6-fluoro-10,11-dihydrobenzo[6,7]oxepino[3,2-b]pyridin-10-yl)-N-methylmethanamine]: greater than 10 µM.
`CN(C)CC1Cc2ccccc2Oc2cccnc21` (single isomer, unassigned) [Compound 110, (S*)-1-(10,11-dihydrobenzo[6,7]oxepino[3,2-b]pyridin-11-yl)-N,N-dimethylmethanamine] showed an EC50 greater than 10 µM.

The next assay deals with T2, human 5-HT7 receptor (Homo sapiens, UniProt P34969).
T2 construct: host or cells: CHO-K1
T2 sequence (P34969 whole entry): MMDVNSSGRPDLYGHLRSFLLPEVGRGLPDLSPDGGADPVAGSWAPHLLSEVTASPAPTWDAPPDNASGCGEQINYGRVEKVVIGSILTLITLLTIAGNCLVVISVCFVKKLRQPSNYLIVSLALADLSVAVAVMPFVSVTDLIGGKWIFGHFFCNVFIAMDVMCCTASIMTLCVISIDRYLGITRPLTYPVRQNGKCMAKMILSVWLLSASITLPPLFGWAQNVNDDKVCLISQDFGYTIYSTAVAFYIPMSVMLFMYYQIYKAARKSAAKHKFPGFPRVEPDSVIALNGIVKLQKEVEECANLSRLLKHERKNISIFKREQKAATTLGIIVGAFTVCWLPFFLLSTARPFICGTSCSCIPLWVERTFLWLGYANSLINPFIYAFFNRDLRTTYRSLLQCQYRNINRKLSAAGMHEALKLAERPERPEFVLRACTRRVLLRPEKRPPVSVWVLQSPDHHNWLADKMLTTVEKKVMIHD
Kind of assay: 5HT7 Antagonism Assay (Euroscreen FAST-0499C), cAMP HTRF. The format is cell-based. The settings on record: CHO-K1 cells expressing human 5-HT7, reference agonist at EC80, cAMP HTRF. The protocol:
5HT7 Antagonism Assay Protocol (Euroscreen FAST-0499C)
CHO-K1 cells expressing the human 5-HT7 receptor, grown prior to the test in media without antibiotic, were detached by gentle flushing with PBS-EDTA (5 mM EDTA), recovered by centrifugation and resuspended in assay buffer (Krebs-Ringer HEPES buffer: 5 mM KCl, 1.25 mM MgSO4, 124 mM NaCl, 25 mM HEPES, 13.3 mM Glucose, 1.25 mM KH2PO4, 1.45 mM CaCl2), 0.5 g/l BSA, supplemented with 1 mM IBMX).
Dose response curves were performed in parallel with reference compounds (e.g., 5-carboxamidotryptamine (5-CT)).
For antagonist testing in a 384 well plate: 5 μl of cells (3000 cells) were mixed with 5 μl of a mix of test compound and reference agonist (for a final assay concentration corresponding to its EC80) diluted in assay buffer. The plates were then incubated for about 30 minutes at about room temperature. After addition of the lysis buffer containing cAMP-d2 and anti-cAMP cryptate detection reagents, plates were incubated for about 1 hour at about room temperature, and fluorescence ratios were measured according to the manufacturer's specifications (HTRF kit: cAMP Gs dynamic kit, Cisbio Bioassays, 62AM4PEJ).
as §1
Background: In TR-FRET formats the signal depends on donor and acceptor labels being close together.
As usually defined, the IC50 is the midpoint of a concentration-inhibition curve. For the molecule `CNCC1Cc2ccccc2Oc2ccc(F)cc21` (single isomer, unassigned) [Compound 95, (S*)-(8-fluoro-10,11-dihydrodibenzo[b,f]oxepin-10-yl)-N-methylmethanamine], the IC50 is 1 to 10 µM.
The same measure, in the same setting: as for `CNCC1Cc2c(Cl)cccc2Oc2cccnc21` (single isomer, unassigned) [Compound 147, (R*)-(9-chloro-10,11-dihydrobenzo[6,7]oxepino[3,2-b]pyridin-11-yl)-N-methylmethanamine], the figure is no less than 10 µM.

The next assay deals with T3, human 5-HT2A receptor (Homo sapiens, UniProt P28223).
T3 construct: host or cells: CHO-K1
T3 sequence (P28223 whole entry): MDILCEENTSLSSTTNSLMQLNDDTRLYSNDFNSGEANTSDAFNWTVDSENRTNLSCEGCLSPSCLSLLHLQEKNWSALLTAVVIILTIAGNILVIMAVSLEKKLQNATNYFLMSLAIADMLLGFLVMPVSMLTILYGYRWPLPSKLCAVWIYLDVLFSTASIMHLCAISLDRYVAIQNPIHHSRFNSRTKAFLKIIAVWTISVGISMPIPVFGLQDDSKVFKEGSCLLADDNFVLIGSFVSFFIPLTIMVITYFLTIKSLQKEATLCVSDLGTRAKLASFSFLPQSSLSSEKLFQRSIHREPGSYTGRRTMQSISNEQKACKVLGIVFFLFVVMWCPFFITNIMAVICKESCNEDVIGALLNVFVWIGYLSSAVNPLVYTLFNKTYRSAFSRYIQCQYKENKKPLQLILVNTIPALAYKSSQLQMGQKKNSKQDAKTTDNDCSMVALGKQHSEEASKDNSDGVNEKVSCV
Kind of assay: 5HT2A Antagonism Assay (Euroscreen FAST-05051), IP-One HTRF. The format is cell-based. The settings on record: 5-HT2A (IC50), CHO-K1 cells expressing human 5-HT2A, reference agonist at EC80, IP-One. The protocol: 5HT2A Antagonism Assay Protocol (Euroscreen FAST-05051)
CHO-K1 cells expressing the human 5-HT2A receptor grown to mid-log phase in culture media without antibiotics, were detached with PBS-EDTA, centrifuged, and resuspended in the IP-One Gq kit (Cisbio Bioassays, 62IPAPEC) stimulation buffer.
For antagonist testing in a 384 well plate: 5 μl of cells (20,000 cells) were mixed with 5 μl of a mix of test compound and reference agonist (for a final assay concentration corresponding to its EC80) diluted in stimulation buffer. The plate was incubated for 60 minutes at 37° C. in a humidified atmosphere of 95% air with 5% CO2, then 5 μL of IP1-d2 and anti-IP1 cryptate detection reagents were added to each well, the plates were incubated for about 1 hour at about room temperature. Fluorescence ratios are measured according to the manufacturer's specification (IP-One Gq kit (Cisbio Bioassays, 62IPAPEC).
Dose response curves were performed in parallel with reference compounds (e.g., α-methyl-5-HT. Compounds were tested at the following nanomolar concentrations, in duplicate: 0.3 nM, 1 nM, 3 nM, 10 nM, 30 nM, 100 nM, 300 nM, 1,000 nM, 3,000 nM, and 10,000 nM
For the molecule `CNCC1Cc2c(Cl)cccc2Oc2cccnc21` (single isomer, unassigned) [Compound 147, (R*)-(9-chloro-10,11-dihydrobenzo[6,7]oxepino[3,2-b]pyridin-11-yl)-N-methylmethanamine], the IC50 was less than 1 µM.

The assay is the same for the next values; noted with them: read-out: 5-HT2A (IC50), CHO-K1 cells expressing human 5-HT2A, reference agonist at EC80, IP-One.
Consider `CNCC1Cc2ccccc2Oc2ccc(F)cc21` (single isomer, unassigned) [Compound 95, (S*)-(8-fluoro-10,11-dihydrodibenzo[b,f]oxepin-10-yl)-N-methylmethanamine], for which the IC50 was less than 1 µM.

Source of the values: patent publication US20240245658A1, “TAAR1 AND SEROTONIN MODULATORS, AND PHARMACEUTICAL COMPOSITIONS, AND METHODS OF USE THEREOF” (Sunovion Pharmaceuticals Inc., priority 2021, published 2024).
